US7056734B1, “Differentiation of non-insulin producing cells into insulin producing cells by GLP-1 or exendin-4 and uses thereof” (The United States of America as represented by the …, priority 1998, dated 2006)

Assays:
AR42J cells [1] = test: Amylase content and CCK response of AR42J cells after 72 h treatment; format: cell-based, rat
Description: Amylase Assay. For amylase determination, cells were washed free of medium with 2 ml PBS. Incubation was then carried out in DMEM containing 15 mM HEPES, 0.2% BSA and 0.01% soybean trypsin inhibitor. CCK (1 nM) was added for 50 min at 37° C. The incubation medium was then immediately removed for amylase determination and the cells were again washed in 2 ml ice-cold PBS. Lysate buffer containing (in mM) 130 Tris-HCl, 10 CaCl2, 75 NaCl, and 0.2% Triton X-100 (pH 8.0) was added to the cells and the lysates were then collected for total amylase (Ceska et al., 1969). The released amylase was expressed as the percentage of the total amylase in the cells.

pancreata = test: Pancreas weight after continuous GLP-1 infusion; format: in vivo, rat
Text: The pancreata of treated animals weighed 26% more than the pancreata of control animals.

insulin mRNA = test: Slot-blot quantitation of insulin mRNA in pancreata and islets; format: in vivo, rat; conditions: young and old animals, 48 hrs infusion, P<0.01
Text: (§1) The rats were implanted with an Alzet micro-osmotic pump (Alza Corp., Palo Alto, Calif.) in the interscapular region for 48 hrs. […] Control animals received normal saline in their pumps and received their infusion for the same length of time.
(§2) After an overnight fast, animals were sacrificed, pancreata were removed and frozen in liquid nitrogen as quickly as possible. RNA was extracted by homogenization in guanidinium isothiocyanate, followed by ultracentrifugation on a 5.7 M cesium chloride cushion (Glisin et al., 1974; Chigwin et al., 1979). Poly-A RNA was then prepared from total RNA by affinity chromatography using oligo (dT) columns (Biolabs INC, Beverly, Mass.). RNA was quantified by spectrophotometric analysis at […]. Slot-blot analysis using poly-A RNA was used for quantitation of mRNA levels of glucokinase, which is the main glucose sensor of the beta cell (Matschinsky, 1990), the three hexokinases, GLUT2, the major glucose transporter of the beta cell (Mueckler, 1990), and insulin. Four micrograms of poly-A RNA were diluted in 50 μl TE buffer (Tris-HCL 10 mM, EDTA 1 mM, pH 7.4), 20 μl of 37% formaldehyde and 20 μl of 10× SSC. Samples were incubated at 60° C. for 15 min and then diluted with 1 ml of ice-cold 10× SSC (1×SCC=0.15 M NaCl+0.015 sodium citrate). […]

glucokinase mRNA = test: Slot-blot quantitation of glucokinase mRNA in pancreata and islets; format: in vivo, rat; conditions: young (P<0.05), much more so in old animals (P<0.001)
Text: as §1, §2

AR42J cells [2] = test: Immunoreactive insulin release from treated AR42J cells (RIA); format: cell-based, rat
Description: Measurement of immunoreactive insulin. AR42J cells were cultured as before in 12-well cluster plates. When cells reached 60% confluence, they were treated with GLP-1 for 3 days. At the beginning of the experiments, an aliquot of the medium was taken in order to assay the insulin accumulation in the medium. Then the cells were twice washed with Kreb's Ringer Balanced Buffer (KRBB) and incubated in the same buffer containing 10 mM glucose for another 1 h. The medium was collected and kept at −20° C. until insulin levels were assayed by RIA (See Example 1; Wang et al., Endocrinology, 1995). The cells were washed with PBS and detached with 0.25% typsin and 0.02% EDTA. The cell pellet was collected and lysed with formic acid for protein determination by the Bradford method (Bradford, 1976), using bovine-globulin as standard.

22 month old Wistar rats = test: Intraperitoneal glucose tolerance test after 48 hrs subcutaneous GLP-1 infusion; format: in vivo, rat; conditions: […] for 48 hrs
Description: as §1
Blood samples were obtained at 15, 30, 45, 60, and 90 min in order to estimate glucose and insulin levels. Blood (200 μl) was drawn into heparinized tubes containing EDTA for glucose and insulin determination.
Assays. Plasma glucose was measured by the glucose oxidase method (Egan et al., 1991). […] The amount of cellular proteins was measured using the Bradford method (Bio-Rad Richmond, Calif.) using bovine γ-globulin as standard.

diabetic mice = test: Five-day daily ip exendin-4 in 14 weeks old diabetic mice; format: in vivo, mouse; conditions: 24 nmol/kg ip daily
Description: In another group of eight diabetic mice 14 weeks old we gave 24 nmol/kg exendin-4 ip daily and NaCl ip daily for five days to four each of the group.
Assays. Plasma glucose was measured by the glucose oxidase method (Wang et al., 1997). Insulin was measured by RIA as previously described (See Example 1). Hb A1c was assayed using a BIO-RAD (Herculas Calif.) DiaSTAT machine which uses low pressure cation exchange chromatography in conjunction with gradient elution to separate hemoglobin subtypes and variants from hemolyzed blood. The separated hemoglobin fractions were monitored by means of absorption of light at 415 nm.

| Compound | total amylase content (AR42J cells [1]; GLP-1 added together with dexamethasone, 72 h) | acute amylase response to CCK (1 nM) (AR42J cells [1]; cells pretreated with GLP-1 for 72 h) | pancreas weight increase over control animals (pancreata) | insulin mRNA vs controls (insulin mRNA) | glucokinase mRNA levels (glucokinase mRNA) | insulin in cell culture medium (AR42J cells [2]; 1 nM GLP-1 for 3 days, 60–72 h time period, mean±SD of 3 cultures) | glucose-induced insulin in buffer (AR42J cells [2]; 3 days of GLP-1, then KRBB with 10 mM glucose for 1 h, control cells zero) | blood glucose during glucose tolerance test (22 month old Wistar rats; 15 min after 1 g/kg ip glucose, control 11.61±0.23) | blood glucose during glucose tolerance test (22 month old Wistar rats; 30 min after 1 g/kg ip glucose, control 10.36±0.43) | blood sugars after five days (diabetic mice; NaCl-treated 640±37) | insulin levels after five days (diabetic mice; NaCl-treated 1,072±54) |
| --- | --- | --- | --- | --- | --- | --- | --- | --- | --- | --- | --- |
| CC[C@H](C)[C@H](NC(=O)[C@H](Cc1ccccc1)NC(=O)[C@H](CCC(=O)O)NC(=O)[C@H](CCCCN)NC(=O)[C@H](C)NC(=O)[C@H](C)NC(=O)[C@H](CCC(N)=O)NC(=O)CNC(=O)[C@H](CCC(=O)O)NC(=O)[C@H](CC(C)C)NC(=O)[C@H](Cc1ccc(O)cc1)NC(=O)[C@H](CO)NC(=O)[C@H](CO)NC(=O)[C@@H](NC(=O)[C@H](CC(=O)O)NC(=O)[C@H](CO)NC(=O)[C@@H](NC(=O)[C@H](Cc1ccccc1)NC(=O)[C@@H](NC(=O)CNC(=O)[C@H](CCC(=O)O)NC(=O)[C@H](C)NC(=O)[C@@H](N)Cc1c[nH]cn1)[C@@H](C)O)[C@@H](C)O)C(C)C)C(=O)N[C@@H](C)C(=O)N[C@@H](Cc1c[nH]c2ccccc12)C(=O)N[C@@H](CC(C)C)C(=O)N[C@H](C(=O)N[C@@H](CCCCN)C(=O)NCC(=O)N[C@@H](CCCNC(=N)N)C(N)=O)C(C)C [GLP-1] | 7.76 U/1 | decreased | 26% | increased | significantly increased | 5.1±0.4 pg insulin/μg protein | 0.65±0.15 pg insulin/μg protein | 9.04 ± 0.92 mmol/L | 8.61 ± 0.39 mmol/L |  |  |
| exendin-4 |  |  |  |  |  |  |  |  |  | 355 ± 21 mg/dL | 6,904±705 pmol/l |
